# Reference: PMC6825211 (Nature Communications, 2019)
# “And” between values parts separate entries of the source, which are not always exact repeats. Equal values may be shown once.
# Tests used:
# MST1 = target: T1, MST1 (Homo sapiens, UniProt Q13043); assay: LanthaScreen Eu kinase binding assay (HTS and dose response); parameters: purchased ThermoFisher; settings: three experiments
# T1 sequence (Q13043 1-487): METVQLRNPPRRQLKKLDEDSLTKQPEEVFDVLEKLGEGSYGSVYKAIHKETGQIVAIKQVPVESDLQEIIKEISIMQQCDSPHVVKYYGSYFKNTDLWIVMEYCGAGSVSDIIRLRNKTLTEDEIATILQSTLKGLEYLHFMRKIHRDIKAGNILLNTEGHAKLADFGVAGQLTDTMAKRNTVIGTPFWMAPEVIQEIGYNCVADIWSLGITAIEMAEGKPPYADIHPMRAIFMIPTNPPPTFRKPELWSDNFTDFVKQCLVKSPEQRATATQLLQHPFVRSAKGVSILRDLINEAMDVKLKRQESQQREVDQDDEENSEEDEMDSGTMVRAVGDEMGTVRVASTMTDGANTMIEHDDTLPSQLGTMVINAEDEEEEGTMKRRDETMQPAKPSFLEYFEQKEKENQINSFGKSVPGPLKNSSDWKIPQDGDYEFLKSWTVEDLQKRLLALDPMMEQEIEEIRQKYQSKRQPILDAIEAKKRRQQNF
# Method: A total of 39 hits were selected for 9-point dose response confirmation in triplicate, starting at 1 μM followed by 1:5 serial dilution.
# Compounds in 1000× DMSO stock solution were dispensed by using Echo555 liquid dispensing system (Labcyte, CA) to 1536-well microplate (Corning, NY). Kinase buffer A (ThermoFisher, MA) was prepared and added to each well. […] Each reagent was added to the microplate in equal volume.
# INS-1E cells = assay: Caspase-3 activation Nucview assay, thapsigargin; format: cell-based, rat; settings: 0.1 µM thapsigargin, NucView 488
# Method: Apoptosis was induced after 24 h of compound treatment by 0.1 µM Thapsigargin (Torics, Bristol, United Kingdom) with caspase-3 substrate, Nucview 488 (Biotium, CA) in the treatment.
# 1 50 Supplementary Figure 3
# 100 Cell number Cell Number
# evaluated through Nucview488 and Hoechst33342.
# were analyzed through qRT-PCR.
# detected on plate reader.
# [1] = system: obese diabetic Lepr db/db mice; assay: db/db model: β-cell mass; format: in vivo, mouse; settings: for BCM: dbdb mice
# Text: (§1) Data are representative of six mice per group (n = 6 for (a–f)). g–j Mice were killed at day 31. g β-cell mass (given as percentage of the whole pancreatic section from ten sections spanning the width of the pancreas; n = 5 mice/group) and quantitative analyses from triple stainings for (h) TUNEL, (i) Ki67, (j) pHH3, and (k) nuclear PDX1 expression, insulin, and DAPI expressed as percentage of TUNEL-, Ki67-, pHH3-, or nuclear PDX1-positive β-cells ± SEM. An average number of 13667 (h), 5937 (i), 7108 (j), or 4330 (k) β-cells were counted from n = 3–5 (h, i, k) or n = 5–6 (j) mice/group.
# For morphometric data, ten sections (spanning the width of the pancreas) per mouse were analyzed. Pancreatic tissue area and insulin-positive area were determined by computer-assisted measurements by using a Nikon MEA53200 (Nikon GmbH, Dusseldorf, Germany) microscope, and images were acquired by using NIS-Elements software (Nikon). β-cell mass was obtained by multiplying the β-cell fraction by the weight of the pancreas.
# [2] = system: obese diabetic Lepr db/db mice; assay: db/db model: nuclear PDX1-positive β-cells; format: in vivo, mouse; settings: for PDX1 %/mouse: dbdb mice
# Text: as §1
# Mouse pancreases were dissected and fixed in 4% formaldehyde at 4 °C for 12 h before embedding in paraffin[62]. Two-four-micrometer sections were deparaffinized, rehydrated, and incubated overnight at 4 °C with anti-PDX-1 (Abcam; #47267), anti-Glut2 (Chemicon; #07-1402), anti-Ki67 (Dako; #M7249), anti-phospho-Histone H3 (Ser10; Merck #06-570), and anti-NKX6.1 (DSHB, University of Iowa #F55A12[66]) in combination with TSA (Invitrogen #T30955), or for 2 h at room temperature with anti-insulin (Dako; A0546) antibodies (all at a dilution of 1:100, except anti-PDX-1, which was diluted 1:400) followed by fluorescein isothiocyanate (FITC)- or Cy3-conjugated secondary antibodies (Jackson ImmunoResearch Laboratories, West Grove, PA). Slides were mounted with Vectashield with 4′6-diamidino-2-phenylindole (DAPI) (Vector Labs). β-cell apoptosis was analyzed by the terminal deoxynucleotidyl transferase-mediated dUTP nick-end labeling (TUNEL) technique according to the manufacturer’s instructions (In Situ Cell Death Detection Kit, TMR red; Roche) and double stained for insulin. Fluorescence was analyzed by using a Nikon MEA53200 (Nikon GmbH, Dusseldorf, Germany) microscope, and images were acquired by using NIS-Elements software (Nikon).
# MEK1 = MEK1 (Homo sapiens, UniProt Q02750); assay: Nanosyn kinase profiling, mobility shift assay; format: biochemical
# Chain of MEK1 (Q02750 whole entry, species assumed): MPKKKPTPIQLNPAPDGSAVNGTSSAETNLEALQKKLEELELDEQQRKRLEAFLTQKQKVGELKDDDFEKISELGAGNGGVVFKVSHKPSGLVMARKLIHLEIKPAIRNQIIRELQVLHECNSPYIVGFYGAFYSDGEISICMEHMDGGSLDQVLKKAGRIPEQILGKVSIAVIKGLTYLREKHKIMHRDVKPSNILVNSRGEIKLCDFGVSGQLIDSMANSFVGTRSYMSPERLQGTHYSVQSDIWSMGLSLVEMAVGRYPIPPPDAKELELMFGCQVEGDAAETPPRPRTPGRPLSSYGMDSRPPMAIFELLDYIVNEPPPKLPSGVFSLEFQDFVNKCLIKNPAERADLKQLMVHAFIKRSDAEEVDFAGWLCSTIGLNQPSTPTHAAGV
# CDK1 = CDK1 (Homo sapiens, UniProt P06493); assay: Nanosyn kinase profiling, mobility shift assay; settings: read-out: % inhibition by neratinib
# Chain of CDK1 (P06493 whole entry): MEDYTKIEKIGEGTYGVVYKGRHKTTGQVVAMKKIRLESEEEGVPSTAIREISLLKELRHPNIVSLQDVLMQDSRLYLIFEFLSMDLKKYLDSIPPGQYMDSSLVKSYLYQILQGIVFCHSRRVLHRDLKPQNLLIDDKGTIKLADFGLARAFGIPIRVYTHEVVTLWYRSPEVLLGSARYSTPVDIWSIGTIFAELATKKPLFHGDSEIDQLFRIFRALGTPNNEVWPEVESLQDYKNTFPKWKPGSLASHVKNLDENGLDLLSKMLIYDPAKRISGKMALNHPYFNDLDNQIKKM
# Chain of CDK1 (P14635 whole entry partner): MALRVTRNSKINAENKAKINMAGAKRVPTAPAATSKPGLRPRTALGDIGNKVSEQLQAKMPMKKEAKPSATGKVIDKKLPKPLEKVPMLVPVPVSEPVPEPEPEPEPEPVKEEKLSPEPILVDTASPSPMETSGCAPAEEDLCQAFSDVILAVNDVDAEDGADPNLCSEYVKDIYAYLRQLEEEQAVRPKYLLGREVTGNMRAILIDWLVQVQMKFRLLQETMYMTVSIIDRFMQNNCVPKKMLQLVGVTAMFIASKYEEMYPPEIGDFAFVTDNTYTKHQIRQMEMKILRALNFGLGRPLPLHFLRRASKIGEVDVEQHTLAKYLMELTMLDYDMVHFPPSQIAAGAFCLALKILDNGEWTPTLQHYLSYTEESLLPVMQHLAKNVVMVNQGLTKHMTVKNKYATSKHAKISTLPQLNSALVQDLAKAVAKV
# [3] = system: obese diabetic Lepr db/db mice; assay: db/db model: ipITT; format: in vivo, mouse; parameters: ipITT: unit not given here; settings: for ipITT normalized to 100: MEAN
# Text: as §1
# For intraperitoneal glucose tolerance tests, mice were fasted 12 h overnight and injected i.p. with glucose (40%; B.Braun, Melsungen, Germany) at a dose of 1 g/kg body weight. Blood samples were obtained at time points 0, 15, 30, 60, 90, and 120 min for glucose measurements by using a Glucometer. For i.p. insulin tolerance tests, mice were injected with 0.75 U/kg body weight recombinant human insulin (Novolin, Novo Nordisk) after 4–5-h fasting, and glucose concentration was determined with the Glucometer. Insulin secretion was measured before (0 min) and after (15 and 30 min) i.p. injection of glucose (2 g/kg) and measured by using ultrasensitive mouse Elisa kit (ALPCO Diagnostics, Salem, NH).
compound,measurement,setting,value
CCOc1cc2ncc(C#N)c(Nc3ccc(OCc4ccccn4)c(Cl)c3)c2cc1NC(=O)/C=C/CN(C)C [neratinib],MST1 (% activity),MST1; neratinib 0.02 nM,87.31% and 98.20% and 108.86%
same,MST1 (% activity),MST1; neratinib 0.06 nM,99.80% and 103.92%
same,activity at 60 pM,MST1; neratinib 0.06 nM,114%
same,MST1 (% activity),MST1; neratinib 0.17 nM,91.02% and 100.09%
same,activity at 0.00017 µM,MST1; neratinib 0.17 nM,97.1%
same,MST1 (% activity),MST1; neratinib 0.51 nM,98.60% and 98.84%
same,activity at 0.00051 µM,MST1; neratinib 0.51 nM,101%
same,MST1 (% activity),MST1; neratinib 1.52 nM,88.42% and 89.31%
same,activity at 0.00152 µM,MST1; neratinib 1.52 nM,103%
same,MST1 (% activity),MST1; neratinib 4.57 nM,67.07% and 80.02%
same,activity at 0.00457 µM,MST1; neratinib 4.57 nM,82.2%
same,MST1 (% activity),MST1; neratinib 13.72 nM,46.34% and 78.85% and 63.80%
same,MST1 (% activity),MST1; neratinib 41.15 nM,53.70% and 49.03%
same,activity at 0.04115 µM,MST1; neratinib 41.15 nM,48.9%
same,MST1 (% activity),MST1; neratinib 123.46 nM,24.15% and 30.50%
same,activity at 0.12346 µM,MST1; neratinib 123.46 nM,30.6%
same,MST1 (% activity),MST1; neratinib 370.37 nM,7.98% and 6.57%
same,activity at 0.37037 µM,MST1; neratinib 370.37 nM,11.7%
same,MST1 (% activity),MST1; neratinib 1111.11 nM,8.75% and 1.83%
same,MST1 (% activity),MST1; neratinib 3333.33 nM,4.17% and -2.20% and -1.83%
same,caspase-3 activation induced by thapsigargin,INS-1E cells,dose-dependently abolished
same,β-cell mass,"[1]; db/db, day 31",increased β-cell mass
same,BCM,[1]; Mean,4.571
same,BCM,[1]; individual mice,1.526 and 8.3226 and 3.26 and 4.639 and 5.1069
same,nuclear PDX1,"[2]; db/db, day 31",enhanced
same,PDX1 %/mouse,[2]; Mean,57.3127%
same,PDX1 %/mouse,[2]; individual mice,48.8372% and 71.3415% and 51.7595%
same,IC50,MEK1; 12 points dose response,1.49 µM
same,inhibition at 10 µM,MEK1; read-out: % inhibition by neratinib,73%
same,inhibition at 10 µM,CDK1,14%
same,ipITT normalized to 100,[3]; 0 min after ins,100
same,ipITT normalized to 100,[3]; 15 min after ins,132.381
same,ipITT normalized to 100,[3]; 30 min after ins,111.751
same,ipITT normalized to 100,[3]; 60 min after ins,88.1279
same,ipITT normalized to 100,[3]; 90 min after ins,87.8414
same,basal glucose lower in neratinib-treated mice after a short fast of 4 h,[3]; db/db,20%
same,response to insulin challenge (ipITT),[3]; db/db,modestly reduced ability to lower their glucose levels
same,AUC ipITT,"[3]; insert 8d, normalized to 100, individual mice",11197.2 and 9260.59 and 10559.8 and 6670.17 and 8196.06 and 9385.6
same,MEAN AUC ipITT,"[3]; insert 8d, normalized to 100, mean",9211.58
same,ipITT,"[3]; time 0, MEAN",336.667
same,ipITT,"[3]; time 0, individual mice",327 and 354 and 301 and 357 and 292 and 389
same,ipITT,"[3]; time 15, MEAN",444.667
same,ipITT,"[3]; time 15, individual mice",477 and 480 and 417 and 432 and 371 and 491
same,ipITT,"[3]; time 30, MEAN",371.5
same,ipITT,"[3]; time 30, individual mice",455 and 383 and 437 and 224 and 323 and 407
same,ipITT,"[3]; time 60, MEAN",297.167
same,ipITT,"[3]; time 60, individual mice",397 and 342 and 303 and 176 and 182 and 383
same,ipITT,"[3]; time 90, MEAN",295.833
same,ipITT,"[3]; time 90, individual mice",324 and 270 and 290 and 289 and 230 and 372
